Experimental data taken from patent US20090202596A1, “PHARMACEUTICAL COMPOSITIONS WITH BIOLOGICAL BARRIERS PERMEATION ENHANCING PROPERTIES” (FARMATRON LIMITED, priority 2006, published 2009).

Experiment: In vitro solubilization kinetics in buffer solution
Type: physicochemical
Conditions: buffer pH 7.4, 37° C., HPLC
Method: Solubilization Kinetics of the Double Microemulsions of the Invention
The “in vitro” solubilization kinetics was determined in buffer solution (pH 7.4, 37° C.); sample of the double microemulsion under testing is dispersed in tubes filled with 50 ml of buffer solution and placed over a thermostated shaking plate; at predetermined time intervals samples of the solution were filtered and then ultra-centrifuged; drug concentration was determined by HPLC, data are reported in Table 2.

CCC(C)n1ncn(-c2ccc(N3CCN(c4ccc(OCC5COC(Cn6cncn6)(c6ccc(Cl)cc6Cl)O5)cc4)CC3)cc2)c1=O (centres unmarked) [Itraconazole pure dispersion, Itraconazole]
Drug concentration (0.5 hr): 50 ng/mL | Drug concentration (1 hr): 100 ng/mL | Drug concentration (3 hr): 300 ng/mL | Drug concentration (8 hr): 500 ng/mL | Drug concentration (24 hr): 1500 ng/mL
